pEC50, pIC50: −log10 of the molar value. Read-outs that look alike come from different tables or passages of the source. Marks after values point to notes of the source that are not given here.
How the values were obtained:
[1] = biological target: T1, NR1/NR2D (Rattus norvegicus, UniProt Q62645); experiment: Two electrode voltage clamp, Xenopus oocytes expressing recombinant NR1/NR2D; format: cell-based
Experimental: (§1) Quality of synthesized cRNA was assessed by gel electrophoresis, and quantity was estimated by spectroscopy and gel electrophoresis. Stage V and VI oocytes were surgically removed from the ovaries of large, well-fed and healthy Xenopus laevis anesthetized with 3-amino-benzoic acid ethyl ester (3 gm/l) as previously described. Clusters of isolated oocytes were incubated with 292 U/ml Worthington (Freehold, N.J.) type IV collagenase or 1.3 mg/ml collagenase (Life Technologies, Gaithersburg, MD; 17018-029) for 2 hr in Ca^2+-free solution comprised of (in mM) 115 NaCl, 2.5 KCl, and 10 HEPES, pH 7.5, with slow agitation to remove the follicular cell layer. Oocytes were then washed extensively in the same solution supplemented with 1.8 mM CaCl2 and maintained in Barth's solution comprised of (in mM): 88 NaCl, 1 KCl, 2.4 NaHCO3, 10 HEPES, 0.82 MgSO4, 0.33 Ca(NO3)2, and 0.91 CaCl2 and supplemented with 100 μg/m1 gentamycin, 10 μg/ml streptomycin, and 10 μg/ml penicillin. Oocytes were manually defolliculated and injected within 24 hrs of isolation with 3-5 ng of NR1 subunit cRNA and 7-10 ng of NR2 cRNA subunit in a 50 nl volume, or 5-10 ng of AMPA or kainate receptor cRNAs in a 50 nl volume, and incubated in Barth's solution at 18° C. for 1-7 d. Glass injection pipettes had tip sizes ranging from 10-20 microns, and were backfilled with mineral oil.
(§2) Two electrode voltage-clamp recordings were made 2-7 days post-injection as previously described. Oocytes were placed in a dual-track plexi-glass recording chamber with a single perfusion line that splits in a Y-configuration to perfuse two oocytes. Dual recordings were made at room temperature (23° C.) using two Warner OC725B two-electrode voltage clamp amplifiers, arranged as recommended by the manufacturer. Glass microelectrodes (1-10 Megaohms) were filled with 300 mM KCl (voltage electrode) or 3 M KCl (current electrode). The bath clamps communicated across silver chloride wires placed into each side of the recording chamber, both of which were assumed to be at a reference potential of 0 mV. Oocytes were perfused with a solution comprised of (in mM) 90 NaCl, 1 KCl, 10 HEPES, and 0.5 BaCl2; pH was adjusted by addition of 1-3 M NaOH of HC1 to 7.4. Oocytes were recorded under voltage clamp at −40 mV. […] In some experiments, 10 μM EDTA was obtained by adding a 1:1000 dilution of 10 mM EDTA, in order to chelate contaminant divalent ions such as Zn^2+. […] Concentration effect curves consisting of 4 to 8 concentrations were obtained in this manner. The baseline leak current at −40 mV was measured before and after recording, and the full recording linearly corrected for any change in leak current. […] Each experiment consisted of recordings from 3 to 10 oocytes obtained from a single frog. Results from multiple experiments were pooled, and the average percent responses at antagonist concentrations were fitted by the equation,
(§3) Percent Response=(100−minimum)/(1+([conc]/IC50)nH)+minimum

[2] = biological target: T1, NR1/NR2D; experiment: Ca2+ fluorescence screening assay in NR1/NR2D expressing BHK cells (96 well); format: cell-based; set-up: expressed in transfected cells; host or cells: BHK-21 cells; NR1 induced by doxycyclin (Tet-On), NR2D constitutive
[3] = biological target: NR2C (Homo sapiens, UniProt Q05586+Q14957)
[4] = biological target: T2, NR2D (Homo sapiens, UniProt O15399+Q05586)
[5] = biological target: T3, NR2B (Homo sapiens, UniProt Q05586+Q13224)
[6] = biological target: NR2A (Homo sapiens, UniProt Q05586+Q12879); settings: cited from earlier work; for IC50: read-out: 2A (μM) IC50, non-competitive and uncompetitive antagonists; for potency estimated from few doses: Ki estimated from functionally determined IC50 at a single agonist concentration, read-out: 2A (μM) Ki**
[7] = biological target: NR1/NR2A (Rattus norvegicus, UniProt P35439+Q00959); experiment: Two electrode voltage clamp, Xenopus oocytes expressing recombinant NR1/NR2A; format: cell-based; settings: logistic fit, minimum forced to 0; read-out: 2A IC50
Experimental: as §1, §2, §3

[8] = biological target: NR1/NR2B (Rattus norvegicus, UniProt P35439+Q00960); experiment: Two electrode voltage clamp, Xenopus oocytes expressing recombinant NR1/NR2B; format: cell-based; settings: logistic fit, minimum forced to 0; read-out: 2B IC50
Experimental: as §1, §2, §3

[9] = biological target: NR1/NR2C (Rattus norvegicus, UniProt P35439+Q00961); experiment: Two electrode voltage clamp, Xenopus oocytes expressing recombinant NR1/NR2C; format: cell-based; settings: logistic fit, minimum forced to 0; read-out: 2C IC50
Experimental: as §1, §2, §3

[10] = biological target: NR1/NR2C (Rattus norvegicus, UniProt Q00961); experiment: as above; format: cell-based; settings: logistic fit, minimum forced to 0; read-out: 2C IC50
Experimental: as §1, §2, §3

[11] = biological target: NR1/NR2D (Rattus norvegicus, UniProt P35439+Q62645); experiment: Two electrode voltage clamp, Xenopus oocytes expressing recombinant NR1/NR2D; format: cell-based; settings: logistic fit, minimum forced to 0; read-out: 2D IC50
Experimental: as §1, §2, §3

[12] = biological target: GluR1 (Rattus norvegicus, UniProt P19490); experiment: Two electrode voltage clamp, Xenopus oocytes expressing GluR1; format: cell-based; settings: logistic fit, minimum forced to 0
Experimental: as §1, §2, §3

[13] = biological target: T2, NR2D; experiment: Literature functional antagonist potency at NR2D (Table 1); format: cell-based; settings: for 2A/2D (ratio of Ki**): functional Ki ratio
[14] = biological target: T3, NR2B; experiment: Literature functional antagonist potency at NR2B (Table 1); settings: for 2A/2B (ratio of Ki**): functional Ki ratio
[15] = biological target: NR1/NR2A (Rattus norvegicus, UniProt Q00959); experiment: Two electrode voltage clamp, Xenopus oocytes expressing recombinant NR1/NR2A; format: cell-based; settings: at 100 μM
Experimental: as §1, §2, §3

[16] = 10 μM test compound, 100 μM glutamate/1 mM glycine
[17] = read-out: 2C (μM) IC50; non-competitive and uncompetitive antagonists; cited from earlier work
[18] = read-out: 2D (μM) IC50; non-competitive and uncompetitive antagonists; cited from earlier work
[19] = Ki estimated from functionally determined IC50 at a single agonist concentration; read-out: 2B (μM) Ki**; cited from earlier work
[20] = Ki estimated from functionally determined IC50 at a single agonist concentration; read-out: 2C (μM) Ki**; cited from earlier work
[21] = Ki estimated from functionally determined IC50 at a single agonist concentration; read-out: 2D (μM) Ki**; cited from earlier work
[22] = estimated Ki; cited from earlier work

NR2A, sequence (Q12879 23-1464, other chains not shown): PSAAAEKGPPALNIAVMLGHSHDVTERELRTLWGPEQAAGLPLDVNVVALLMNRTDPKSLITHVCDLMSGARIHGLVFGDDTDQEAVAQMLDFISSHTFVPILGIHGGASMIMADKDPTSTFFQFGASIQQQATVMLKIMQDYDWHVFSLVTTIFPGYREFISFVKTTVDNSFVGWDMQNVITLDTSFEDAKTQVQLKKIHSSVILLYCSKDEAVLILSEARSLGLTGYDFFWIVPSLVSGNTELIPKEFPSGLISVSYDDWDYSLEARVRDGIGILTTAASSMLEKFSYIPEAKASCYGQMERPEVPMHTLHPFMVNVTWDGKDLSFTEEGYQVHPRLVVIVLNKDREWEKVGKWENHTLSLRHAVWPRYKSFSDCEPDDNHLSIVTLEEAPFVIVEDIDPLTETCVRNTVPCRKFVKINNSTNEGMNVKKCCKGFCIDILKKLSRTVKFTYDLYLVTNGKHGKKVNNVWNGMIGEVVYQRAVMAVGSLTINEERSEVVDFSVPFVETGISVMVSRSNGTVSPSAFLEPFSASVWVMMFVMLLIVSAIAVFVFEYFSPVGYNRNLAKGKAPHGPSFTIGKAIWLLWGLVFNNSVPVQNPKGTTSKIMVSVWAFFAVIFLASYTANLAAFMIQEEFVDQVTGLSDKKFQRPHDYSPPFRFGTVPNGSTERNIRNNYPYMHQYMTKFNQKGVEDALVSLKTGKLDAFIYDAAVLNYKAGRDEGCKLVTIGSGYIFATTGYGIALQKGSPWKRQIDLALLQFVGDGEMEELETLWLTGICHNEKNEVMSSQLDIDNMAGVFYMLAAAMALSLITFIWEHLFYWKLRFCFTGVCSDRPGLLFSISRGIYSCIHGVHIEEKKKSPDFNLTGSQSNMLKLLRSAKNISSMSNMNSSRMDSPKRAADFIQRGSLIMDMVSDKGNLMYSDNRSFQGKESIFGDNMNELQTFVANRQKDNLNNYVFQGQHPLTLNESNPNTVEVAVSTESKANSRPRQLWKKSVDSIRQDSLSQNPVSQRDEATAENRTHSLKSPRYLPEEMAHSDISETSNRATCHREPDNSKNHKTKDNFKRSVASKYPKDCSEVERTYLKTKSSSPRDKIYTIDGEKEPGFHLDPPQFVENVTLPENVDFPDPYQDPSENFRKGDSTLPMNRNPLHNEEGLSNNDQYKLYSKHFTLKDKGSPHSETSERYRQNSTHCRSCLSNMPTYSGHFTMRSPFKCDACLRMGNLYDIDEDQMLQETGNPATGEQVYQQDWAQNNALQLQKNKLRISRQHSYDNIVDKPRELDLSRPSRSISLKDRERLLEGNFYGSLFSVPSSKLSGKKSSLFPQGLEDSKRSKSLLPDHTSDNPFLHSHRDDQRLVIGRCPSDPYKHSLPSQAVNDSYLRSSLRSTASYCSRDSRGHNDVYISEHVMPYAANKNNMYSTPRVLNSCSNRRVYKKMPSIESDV
NR1/NR2C (Rattus norvegicus, UniProt P35439+Q00961), sequence (Q00961 20-1237, other chains not shown): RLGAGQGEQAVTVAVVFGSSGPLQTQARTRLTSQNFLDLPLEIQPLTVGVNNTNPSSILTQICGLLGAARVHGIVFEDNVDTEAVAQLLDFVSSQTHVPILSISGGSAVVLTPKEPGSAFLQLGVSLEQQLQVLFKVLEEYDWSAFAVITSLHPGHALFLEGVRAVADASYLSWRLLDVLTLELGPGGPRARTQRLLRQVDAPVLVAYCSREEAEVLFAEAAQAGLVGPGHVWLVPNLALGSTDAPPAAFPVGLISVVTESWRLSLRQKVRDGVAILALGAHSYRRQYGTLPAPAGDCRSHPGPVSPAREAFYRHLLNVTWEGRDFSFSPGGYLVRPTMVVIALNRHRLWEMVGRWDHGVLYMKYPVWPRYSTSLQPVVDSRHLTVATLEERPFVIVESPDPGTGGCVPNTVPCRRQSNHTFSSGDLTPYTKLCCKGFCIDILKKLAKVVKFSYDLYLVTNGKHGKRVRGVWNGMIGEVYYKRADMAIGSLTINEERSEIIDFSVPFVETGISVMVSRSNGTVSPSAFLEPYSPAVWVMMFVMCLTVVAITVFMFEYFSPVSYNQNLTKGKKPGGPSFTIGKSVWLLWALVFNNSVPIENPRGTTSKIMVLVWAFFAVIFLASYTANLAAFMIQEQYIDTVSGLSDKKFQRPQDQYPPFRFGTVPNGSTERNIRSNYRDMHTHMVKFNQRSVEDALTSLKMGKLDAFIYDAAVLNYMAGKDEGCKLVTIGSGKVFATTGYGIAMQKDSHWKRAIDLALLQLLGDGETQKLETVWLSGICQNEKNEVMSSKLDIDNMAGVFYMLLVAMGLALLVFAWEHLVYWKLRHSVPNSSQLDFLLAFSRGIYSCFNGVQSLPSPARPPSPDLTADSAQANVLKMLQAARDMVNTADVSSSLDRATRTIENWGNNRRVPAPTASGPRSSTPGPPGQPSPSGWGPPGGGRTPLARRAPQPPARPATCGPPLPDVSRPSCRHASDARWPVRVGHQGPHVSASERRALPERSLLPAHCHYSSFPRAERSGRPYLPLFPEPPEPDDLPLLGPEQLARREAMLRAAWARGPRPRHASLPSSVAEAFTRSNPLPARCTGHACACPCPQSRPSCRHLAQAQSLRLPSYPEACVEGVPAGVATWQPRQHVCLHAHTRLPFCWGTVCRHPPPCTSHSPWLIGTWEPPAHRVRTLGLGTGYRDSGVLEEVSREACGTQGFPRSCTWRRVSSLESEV
T1 sequence (Q62645 28-1323, other chains not shown): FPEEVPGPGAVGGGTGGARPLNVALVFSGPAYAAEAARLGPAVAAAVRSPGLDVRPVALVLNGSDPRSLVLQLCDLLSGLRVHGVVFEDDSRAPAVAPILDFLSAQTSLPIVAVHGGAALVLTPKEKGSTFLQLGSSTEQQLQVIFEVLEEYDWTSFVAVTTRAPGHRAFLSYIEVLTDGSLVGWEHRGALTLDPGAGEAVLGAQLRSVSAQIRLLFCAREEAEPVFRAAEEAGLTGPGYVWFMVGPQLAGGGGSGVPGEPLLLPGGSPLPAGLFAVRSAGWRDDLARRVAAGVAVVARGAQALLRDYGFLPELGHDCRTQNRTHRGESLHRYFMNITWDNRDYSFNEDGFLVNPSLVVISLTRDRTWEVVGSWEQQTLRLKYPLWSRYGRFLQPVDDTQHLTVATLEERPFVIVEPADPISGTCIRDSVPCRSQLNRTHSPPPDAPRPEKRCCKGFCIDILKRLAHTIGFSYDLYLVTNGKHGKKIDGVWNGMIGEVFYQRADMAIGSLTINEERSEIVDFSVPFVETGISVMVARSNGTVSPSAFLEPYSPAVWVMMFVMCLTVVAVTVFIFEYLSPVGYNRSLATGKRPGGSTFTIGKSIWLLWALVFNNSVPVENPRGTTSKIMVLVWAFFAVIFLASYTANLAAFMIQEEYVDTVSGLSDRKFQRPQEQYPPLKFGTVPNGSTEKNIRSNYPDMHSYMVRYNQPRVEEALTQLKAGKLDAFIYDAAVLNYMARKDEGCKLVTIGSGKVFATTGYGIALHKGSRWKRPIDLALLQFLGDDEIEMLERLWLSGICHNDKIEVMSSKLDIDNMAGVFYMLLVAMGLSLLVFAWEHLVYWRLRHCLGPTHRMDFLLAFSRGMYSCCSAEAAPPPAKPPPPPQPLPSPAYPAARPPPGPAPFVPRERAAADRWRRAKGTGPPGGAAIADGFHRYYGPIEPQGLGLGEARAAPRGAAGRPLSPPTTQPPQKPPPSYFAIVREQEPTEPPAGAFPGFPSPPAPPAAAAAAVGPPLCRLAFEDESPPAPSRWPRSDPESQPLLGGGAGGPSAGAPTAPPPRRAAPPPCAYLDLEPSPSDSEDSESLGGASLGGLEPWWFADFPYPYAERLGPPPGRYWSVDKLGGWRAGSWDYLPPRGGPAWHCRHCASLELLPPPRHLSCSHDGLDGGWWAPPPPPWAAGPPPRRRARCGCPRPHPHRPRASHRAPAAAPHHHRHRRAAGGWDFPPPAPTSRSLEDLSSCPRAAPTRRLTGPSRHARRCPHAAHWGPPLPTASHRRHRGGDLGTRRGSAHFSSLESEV
NR1/NR2D (Rattus norvegicus, UniProt P35439+Q62645), sequence (Q62645 28-1323, other chains not shown): as above
NR1/NR2C (Rattus norvegicus, UniProt Q00961), sequence (Q00961 20-1237, other chains not shown): as the sequence (Q00961 20-1237, other chains not shown) above
GluR1, sequence (P19490 19-907): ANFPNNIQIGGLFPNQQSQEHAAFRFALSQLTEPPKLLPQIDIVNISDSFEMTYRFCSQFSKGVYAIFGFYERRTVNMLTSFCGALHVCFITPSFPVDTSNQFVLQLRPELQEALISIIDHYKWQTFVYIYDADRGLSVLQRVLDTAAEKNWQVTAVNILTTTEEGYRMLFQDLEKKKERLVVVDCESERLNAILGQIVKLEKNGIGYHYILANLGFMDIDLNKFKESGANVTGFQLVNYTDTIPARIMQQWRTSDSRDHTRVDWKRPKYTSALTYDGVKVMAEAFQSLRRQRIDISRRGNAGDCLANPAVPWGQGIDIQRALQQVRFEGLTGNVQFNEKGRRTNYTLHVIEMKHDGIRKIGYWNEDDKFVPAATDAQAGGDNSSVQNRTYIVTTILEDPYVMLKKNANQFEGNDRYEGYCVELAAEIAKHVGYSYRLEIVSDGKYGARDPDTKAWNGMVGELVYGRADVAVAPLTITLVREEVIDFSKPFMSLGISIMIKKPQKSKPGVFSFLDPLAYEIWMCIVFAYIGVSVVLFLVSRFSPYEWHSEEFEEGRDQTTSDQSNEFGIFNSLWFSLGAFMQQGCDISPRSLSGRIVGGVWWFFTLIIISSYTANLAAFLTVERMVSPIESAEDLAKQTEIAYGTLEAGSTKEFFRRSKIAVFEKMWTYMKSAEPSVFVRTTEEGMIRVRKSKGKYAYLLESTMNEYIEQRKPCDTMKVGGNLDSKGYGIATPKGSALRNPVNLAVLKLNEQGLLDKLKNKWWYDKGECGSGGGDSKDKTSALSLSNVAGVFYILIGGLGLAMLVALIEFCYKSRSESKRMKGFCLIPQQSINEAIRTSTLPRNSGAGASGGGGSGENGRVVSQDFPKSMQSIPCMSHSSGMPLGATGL

Compound: O=c1[nH]c2ccc(Cl)cc2c(-c2ccccc2)c1C1=NNC(c2ccc(Br)cc2)C1 (centres unmarked) [compound 1249]
- 2D percent response at the maximum tested concentration [1]: 79% at 30 μM

Compound: CCc1cccc(N(C)C(N)=Nc2cccc3ccccc23)c1 [CNS-1102]
- identification in test screen of NR1/NR2D expressing BHK cells [2, 16]: successfully identified

Compound: C=CCN1CCC2(C)c3cc(O)ccc3CC1C2C (centres unmarked) [N-allylnormetazoline]
- identification in test screen of NR1/NR2D expressing BHK cells [2, 16]: successfully identified

Compound: C[C@]12N[C@H](Cc3ccccc31)c1ccccc12 [(—)MK-801]
- IC50 ([3]; non-competitive and uncompetitive antagonists; read-out: 2C (μM) IC50; cited from earlier work): 0.04 µM
- IC50 ([4]; non-competitive and uncompetitive antagonists; read-out: 2D (μM) IC50; cited from earlier work): 0.17 µM
- identification in test screen of NR1/NR2D expressing BHK cells [2, 16]: successfully identified

Compound: CC12CC3CC(C)(C1)CC(N)(C3)C2 [memantine]
- identification in test screen of NR1/NR2D expressing BHK cells [2]: successfully identified

Compound: N=C(N)c1ccc(OCCCCCOc2ccc(C(=N)N)cc2)cc1 [Pentamidine]
- IC50 ([5]; non-competitive and uncompetitive antagonists; read-out: 2B (μM) IC50; cited from earlier work): 1.5 µM

Compound: (+)MK-801
- identification in test screen of NR1/NR2D expressing BHK cells [2, 16]: successfully identified

Compound: COc1ccc(C2CC(c3c(-c4ccccc4)c4cc(Br)ccc4[nH]c3=O)=NN2C(=O)CCC(=O)O)cc1 (centres unmarked) [compound 1128]
- 2D percent response at the maximum tested concentration ([1]; at 100 μM): 90% at 100 μM

Compound: CC(C(O)c1ccc(O)cc1)N1CCC(Cc2ccccc2)CC1 (centres unmarked) [Ifenprodil]
- IC50 [6]: 40 µM
- IC50 [3, 17]: 29 µM
- IC50 [4, 18]: 76 µM
- identification in test screen of NR1/NR2D expressing BHK cells [2, 16]: successfully identified

Compound: Cc1ccc2[nH]c(=O)c(C3=NN(C(=O)CCC(=O)O)C(c4ccc(Br)cc4)C3)c(-c3ccccc3)c2c1 (centres unmarked) [compound 1105]
- pIC50 [7]: 3.66
- pIC50 [8]: 4.13
- pIC50 [9]: 5.15
- pIC50 [10]: 5.15
- pIC50 [11]: 5.52
- pIC50 ([1]; logistic fit, minimum forced to 0, read-out: 2D IC50): 5.52
- pIC50 [12]: 3.96

Compound: COc1ccc2c(c1)[C@]13CCCC[C@@H]1[C@H](C2)N(C)CC3 [Dextromethorphan]
- 2A/2D (ratio of IC50) ([13]; IC50 ratio): 7.5
- IC50 [6]: 11.3 µM
- IC50 ([5]; read-out: 2B (μM) IC50; non-competitive and uncompetitive antagonists; cited from earlier work): 3.7 µM
- IC50 [3, 17]: 1.1 µM
- IC50 [4, 18]: 1.5 µM
- 2A/2B (ratio of IC50) ([14]; IC50 ratio): 3.1

Compound: O=C(O)CCC(=O)N1N=C(c2c(-c3ccccc3)c3cc(Br)ccc3[nH]c2=O)CC1c1ccc(F)cc1 (centres unmarked) [compound 1184]
- 2A percent response at the maximum tested concentration [15]: 87% at 100 μM
- pIC50 [8]: 4.05
- pIC50 [9]: 4.48
- pIC50 [11]: 4.66

Compound: O=C(O)[C@H]1CN(CCCP(=O)(O)O)CCN1 [(R)CPP]
- 2A/2D (ratio of Ki**) [13]: 0.02**
- potency estimated from few doses [6]: 0.04 µM
- potency estimated from few doses [5, 19]: 0.27 µM
- potency estimated from few doses [3, 20]: 0.63 µM
- potency estimated from few doses [4, 21]: 2 µM
- 2A/2B (ratio of Ki**) [14]: 0.2**

Compound: Cc1nc2ccc(Br)cc2c(-c2ccccc2)c1C1=NN(C(=O)CCC(=O)O)C(c2ccc(Br)cc2)C1 (centres unmarked) [compound 1210]
- 2A percent response at the maximum tested concentration [15]: 85% at 100 μM
- pIC50 [8]: 3.68
- pIC50 [9]: 4.48
- pIC50 [11]: 4.57

Compound: O=C(O)C1NCCN(C(=O)c2ccc3c(ccc4ccccc43)c2)C1C(=O)O (centres unmarked) [PPDA, 1-(phenanthrene-2-carbonyl)piperazin-2,3, dicarboxylic acid]
- selectivity for NR2D over NR2A [4, 22]: ~5 fold

Compound: Cc1ccc2cc(C3CC(c4ccc(Br)cc4)=NN3C(=O)CCC(=O)O)c(=O)[nH]c2c1 (centres unmarked) [compound 1177]
- 2D percent response at the maximum tested concentration ([1]; at 100 μM): 80% at 100 μM

Compound: O=C(O)[C@H]1NCCN(C(=O)c2ccc3ccc4ccccc4c3c2)[C@H]1C(=O)O [UBP141]
- 2A/2D (ratio of Ki**) [13]: 5.1**
- potency estimated from few doses [6]: 14.2 µM
- potency estimated from few doses [5, 19]: 19.3 µM
- potency estimated from few doses [3, 20]: 4.2 µM
- potency estimated from few doses [4, 21]: 2.8 µM
- selectivity for NR2D over NR2A [4, 22]: ~5 fold
- 2A/2B (ratio of Ki**) [14]: 0.7**

Compound: O=c1[nH]c2cc(Cl)c(Cl)c([N+](=O)[O-])c2[nH]c1=O [ACEA-1021]
- 2A/2D (ratio of Kb) ([13]; Kb ratio): 0.4
- Kb ([6]; Kb determined by Schild analysis, read-out: 2A (μM) Kb): 0.004 µM
- Kb ([5]; Kb determined by Schild analysis; read-out: 2B (μM) Kb; cited from earlier work): 0.004 µM
- Kb ([3]; Kb determined by Schild analysis; read-out: 2C (μM) Kb; cited from earlier work): 0.003 µM
- Kb ([4]; Kb determined by Schild analysis; read-out: 2D (μM) Kb; cited from earlier work): 0.011 µM
- 2A/2B (ratio of Kb) ([14]; Kb ratio): 1.0

Compound: N[C@@H](CCC(=O)O)C(=O)O [glutamate, reference compound]
- pEC50 ([1]; submicromolar, method not stated, read-out: EC50 for activation of NR2D-containing receptors): > 6.30

Compound: C=CCN1CC[C@]23CCCC[C@H]2[C@H]1Cc1ccc(O)cc13 [levallorphan]
- identification in test screen of NR1/NR2D expressing BHK cells [2, 16]: successfully identified

Compound: CC(=O)N1N=C(c2c(-c3ccccc3)c3cc(C)ccc3[nH]c2=O)CC1c1ccc(Br)cc1 (centres unmarked) [compound 1250]
- 2D percent response at the maximum tested concentration [1]: 81% at 30 μM

— patent US20110319416A1, “Subunit Selective NMDA Receptor Antagonists For The Treatment Of Neurological Conditions” (EMORY UNIVERSITY, priority 2009, published 2011)
